This is an account of results in patent US5137871A, “Treatment to reduce edema for brain and musculature injuries” (Regents of the University of California, priority 1989, dated 1992).

No end group written: not given here.

Experiment [1] relates to blood pressure. The settings on record: reported in prior art; cited from earlier work.
The subject of experiment [2] is ACTH secretion. The settings on record: reported in prior art; cited from earlier work.
Experiment [3] has as its system brain vascular permeability after cold injury. As to the kind of experiment: Cold (freeze) injury to brain, vascular leakage by Monastral blue staining. It is filed as in vivo, rat. An excerpt:
An in vivo model of injury to study brain edema has been developed as a reproducible edema model, which has the features of immediate cortical damage followed by the subsequent development of brain edema. This model is described by Chan et al., Brain Research 277, pp. 329-337 (1983). The model uses rats which are anesthetized. A 2.5 cm incision is made over the sagittal suture and the bone of the right hemisphere exposed. A 60 mm^2 plate attached to a brass cup filled with dry ice-acetone mixture, with a temperature of -50° C., is applied to the rat skull for one minute. The animals are sacrificed at various intervals after the onset of cold-injury. A dye is administered intravenously before the freezing. Cortical slices are then obtained of the brain.
16 male rats were randomly divided into eight pairs and one rat in each pair received either saline or CRF (subcutaneously twice at 30 μg/kg, 30 min and 10 min before cold injury). The animals were anesthetized with sodium pentobarbital, 60 mg/kg intraperitoneally, and injected with Monastral blue, 60 mg/kg intravenously. A cold probe was applied onto the skull for […] and the brains taken out 1 hour after cold injury. The staining of brain tissues with Monastral blue, a colloidal pigment that gets trapped between the albuminal surface of the endothelial cell and the basement membrane, was proportional to the degree of vascular leakage. The results from the first pair are shown as FIG. 1.
The size of the lesion, measured as area in mm^2, and the degree of staining intensity, were quantified using an image-analysis software program called JAVA (Jandel Corporation, San Rafael, Calif.). The stain intensity, given in arbitrary units, was internally calibrated using Monastral blue solutions (1-30 mg/ml) placed on white filter paper. Values are mean ± S.E.M.

Experiment [4] relates to brain edema after freeze injury. As to the kind of experiment: Freeze injury to cerebral cortex, brain water and sodium content (brain edema). Particulars: CRF 30 μg/kg s.c. 2×, tissues 3 hr after injury, ± S.E.M., N = 5. Type of experiment: in vivo, rat. How it is done: In a second set of experiments, the brain surface, namely the cerebral cortex, was injured by freezing and the water and sodium content were measured in the cerebral cortex and in the basal ganglia, a part of the brain away from the freeze zone. The water and sodium content of the brain tissue served as an index of brain edema. After freeze injury, the water and sodium content of the cerebral cortex were evaluated relative to non-frozen tissues. CRF administered in two separate doses of 30 μg/kg subcutaneously, one dose 15 min. before the injury and the second dose 90 min. after the first dose, inhibited the two indices of brain edema.
Male SpragueDawley rats, 300-325 g, anesthetized with
ketamineacepromazine, were injected saline or CRF (30 μg/kg s.c.
2×) and injury to cerebral cortex was produced by applying a cold
probe to the skull for 1 min. Brain tissues were obtained 3 hr later and
analyzed for water and sodium content.

In experiment [5] the test system is muscle vascular permeability after celiotomy. The experiment is described as follows: Vascular leakage after celiotomy (4 cm midline incision through abdominal muscle wall), Monastral blue. Type of experiment: in vivo, rat. Particulars: for Area / Intensity / Lesion Size: tissues taken 0.5 hr after surgery; for vascular leakage (lesion size) relative to that of the saline-treated group: Table III. How it is done: Experiments were conducted on male Sprague-Dawley rats 243±15 gm (S.D., Simonsen Labs., Gilroy, Calif.) anesthetized with sodium pentobarbital, 60 mg/kg i.p. Monastral blue, 60 mg/kg i.v., was injected 0.2 ml/100 g, 3 min. before a 4 cm midline incision through the abdominal muscle wall (celiotomy). Saline or CRF was administered to randomized pairs with N=8 rats per group. The size of the lesion, measured as area in mm^2, and its light intensity, were quantified using the JAVA image-analysis software program. The light intensity, given in arbitrary units, was internally calibrated using Monastral blue solutions (1-30 mg/ml) placed on white filter paper. Values are mean ± S.E.M. FIG. 2 illustrates the respective amount of vascular permeability for one pair of rats (control and treated). Tables III and IV set out data from these experiments.
CRF: injected at various doses subcutaneously 30 min
before a 4 cm midline incision, tissues taken 0.5 hr
CRF: 30 μg/kg s.c. injected 2 hr before a 4 cm midline
incision, tissues taken 0.5 hr after surgery

Experiment [6] deals with PAF-acether induced vascular leakage in muscle. As to the kind of experiment: Vascular leakage produced by PAF-acether injected subcutaneously into the abdomen. Type of experiment: in vivo, rat. The procedure: CRF: 30 μg/kg s.c. injected 30 min before subcutaneous
injection of PAF-acether (1 μg/0.1 ml/rat) into the
abdomen; muscle removed 0.5 hr later.

Experiment [7] relates to edema of rat pawskin. The settings on record: mediators injected into the rat pawskin; previously shown; cited from earlier work.
Setting [8] is: rat, CRF 30 μg/kg s.c. twice, 30 min and 10 min before cold injury, brains taken 1 hour after injury, mean ± S.E.M.
Setting [9] is: CRF 15 μg/kg s.c. 30 min before incision.
[10] abbreviates: CRF 30 μg/kg s.c. 30 min before incision.
The mark [11] stands for this setting: CRF 30 μg/kg s.c. 2 hr before incision.
Setting [12] is: CRF 60 μg/kg s.c. 30 min before incision.
[13] abbreviates: CRF 30 μg/kg s.c. 30 min before PAF-acether 1 μg/0.1 ml/rat s.c., muscle removed 0.5 hr later.

For the compound `CC[C@H](C)[C@H](NC(=O)[C@@H](NC(=O)[C@H](CC(=O)O)NC(=O)[C@H](CC(C)C)NC(=O)[C@H](CC(C)C)NC(=O)[C@H](CC(C)C)NC(=O)[C@H](CCCNC(=N)N)NC(=O)[C@H](CC(N)=O)NC(=O)[C@H](CC(N)=O)NC(=O)[C@H](C)NC(=O)[C@H](C)NC(=O)[C@H](CCC(N)=O)NC(=O)[C@H](CCC(N)=O)NC(=O)[C@H](CCCCN)NC(=O)[C@H](CCC(=O)O)NC(=O)[C@H](CCCCN)NC(=O)[C@H](CCC(=O)O)NC(=O)[C@H](CCC(N)=O)NC(=O)[C@H](CCCCN)NC(=O)[C@H](CCC(=O)O)NC(=O)[C@@H](NC(=O)[C@H](CCC(=O)O)NC(=O)[C@@H](NC(=O)[C@H](CCSC)NC(=O)[C@H](CCCCN)NC(=O)[C@H](CCCNC(=N)N)NC(=O)[C@H](CC(C)C)NC(=O)[C@H](CC(C)C)NC(=O)[C@H](CCC(=O)O)NC(=O)[C@H](CC(C)C)NC(=O)[C@H](CO)NC(=O)[C@H](CC(C)C)NC(=O)[C@H](CC(=O)O)NC(=O)[C@@H](NC(=O)[C@H](CO)NC(=O)[C@@H](NC(=O)[C@@H]1CCCN1C(=O)[C@@H]1CCCN1C(=O)CNC(=O)[C@@H]1CCC(=O)N1)[C@@H](C)CC)[C@@H](C)CC)[C@@H](C)CC)[C@@H](C)CC)[C@@H](C)O)C(N)=O` [Sauvagine], the “effect on blood pressure” value in experiment [1] is given as “lowering blood pressure”. Also, the “effect on ACTH secretion” value in experiment [2] is “stimulating the secretion of ACTH”.
As for “H-Asn-Asp-Asp-Pro-Pro-Ile-Ser-Ile-Asp-Leu-Thr-Phe-His-Leu-Leu-Arg-Asn-Met-Ile-Glu-Met-Ala-Arg-Asn-Glu-Asn-Gln-Arg-Glu-Gln-Ala-Gly-Leu-Asn-Arg-Lys-Tyr- Leu-Asp-Glu-Val-NH2 (H-NDDPPISIDLTFHLLRNMIEMARNENQREQAGLNRKYLDEV-NH2) [carp urotensin]”, the “effect on blood pressure” value in experiment [1] is on record as “lower blood pressure”. In addition, the “effect on ACTH secretion” value in experiment [2] is recorded as “stimulate ACTH”.
Consider “Ser-Gln-Glu-Pro-Pro-Ile-Ser-Leu-Asp-Leu-Thr-Phe-His-Leu-Leu-Arg-Glu-Val-Leu-Glu-Met-Thr-Lys-Ala-Asp-Gln-Leu-Ala-Gln-Gln-Ala-His-Ser-Asn-Arg-Lys-Leu-Leu-Asp-Ile-Ala-NH2 (SQEPPISLDLTFHLLREVLEMTKADQLAQQAHSNRKLLDIA-NH2) [oCRF]”, for which the “effect on blood pressure” value in experiment [1] is listed as “lower blood pressure”.
With “Ser-Glu-Glu-Pro-Pro-Ile-Ser-Leu-Asp-Leu-Thr-Phe-His-Leu-Leu-Arg-Glu-Val-Leu-Glu-Met-Ala-Arg-Ala-Glu-Gln-Leu-Ala-Gln-Gln-Ala-His-Ser-Asn-Arg-Lys-Leu-Met-Glu-Ile-Ile-NH^2 (SEEPPISLDLTFHLLREVLEMARAEQLAQQAHSNRKLMEII-NH2) [CRF, 41 amino acid neuropeptide]”, the “lesion size relative to that of the saline-treated group” value is recorded as 44% in experiment [3] (Table I, brain cold injury, CRF 30 μg/kg s.c. twice) and 59% in experiment [5] (Table IV, CRF 30 μg/kg s.c. 2 hr before incision). In addition, the “correct assignment of brains to saline or CRF group by an observer unaware of pretreatment” value in experiment [3] (eight pairs of rats, more damaged vs less damaged brain) was 8 out of 8. The Area is listed as 20.8 ± 1.2 mm^2 in experiment [3] (setting [8]); 505 ± 16 mm^2 in experiment [5] (setting [9]); 361 ± 18 mm^2 in experiment [5] (setting [10]); 477 ± 31 mm^2 in experiment [5] (setting [11]); 257 ± 3 mm^2 in experiment [5] (setting [12]); 188 ± 16 mm^2 in experiment [6] (setting [13]). Besides, in experiment [3] (setting [8]), the “Intensity (staining intensity)” value turned out to be 2.0 ± 0.05 arbitrary units. The “Lesion Size” value in experiment [3] (setting [8]) is reported as 43 ± 3; in experiment [5] (setting [9]), 1031 ± 44; in experiment [5] (setting [10]) it was 676 ± 47; in experiment [5] (setting [11]) it was 919 ± 51; in experiment [5] (setting [12]), 468 ± 19; in experiment [6] (setting [13]) it was 260 ± 26. For the same compound, the SODIUM in experiment [4] (BASAL GANGLIA (non-injured)) was 215 ± 9 mEg/kg dry wt; in experiment [4] (CEREBRAL CORTEX (injured)), 271 ± 8 mEg/kg dry wt. Moreover, the “WATER CONTENT” value in experiment [4] (BASAL GANGLIA (non-injured)) came out at 76 ± 1%; in experiment [4] (CEREBRAL CORTEX (injured)) it was 77 ± 4%. Further, the Intensity turned out to be 2.0 ± 0.03 arbitrary units in experiment [5] (setting [9]), 1.9 ± 0.05 arbitrary units in experiment [5] (setting [10]), 1.9 ± 0.03 arbitrary units in experiment [5] (setting [11]) and 1.8 ± 0.05 arbitrary units in experiment [5] (setting [12]). Also, the “vascular leakage (lesion size) relative to that of the saline-treated group” value in experiment [5] (setting [9]) came out at 63%; in experiment [5] (setting [10]) it was 42%; in experiment [5] (setting [12]), 29%. Further, the Intesnity in experiment [6] (setting [13]) is listed as 1.4 ± 0.05. Further, in experiment [6] (Table V, CRF 30 μg/kg s.c.), the “muscle lesion size relative to that of the saline-treated control group” value turned out to be 44%. Moreover, the “effect on ACTH secretion” value in experiment [2] is given as “stimulates ACTH release from pituitary cells”. Further, in experiment [7], the “effect on edema produced by serotonin, substance P, bradykinin, neurotensin, histamine” value is given as “antagonize the edema-producing properties”.
